pIC50: −log10 of the molar value.
How the values were obtained:
HeLa [1] = assay: Antiproliferative activity against human HeLa cells assessed as reduction in cell viability by MTT assay; format: functional, cell-based
HT-29 [2] = assay: Antiproliferative activity against human HT-29 cells assessed as reduction in cell viability by MTT assay; format: functional, cell-based
HCT-116 [3] = assay: Antiproliferative activity against human HCT-116 cells assessed as reduction in cell viability by MTT assay; format: functional, cell-based
MCF7 [4] = assay: Antiproliferative activity against human MCF7 cells assessed as reduction in cell viability by MTT assay; format: functional, cell-based
HCT-116 [5] = assay: Cell cycle arrest in human HCT-116 cells assessed as accumulation at G0/G1 phase at 10 uM measured after 24 hrs by propidium iodide staining based flow cytometry analysis (reference value: 30.60 %); format: functional
HCT-116 [6] = assay: Induction of apoptosis in human HCT-116 cells assessed as early apoptotic cells at 5 uM incubated for 24 hrs by Annexin V-FITC and propidium iodide staining based flow cytometry analysis (reference value: 6.19 %); format: functional
HCT-116 [7] = assay: Induction of apoptosis in human HCT-116 cells assessed as necrotic cells at 10 uM incubated for 24 hrs by Annexin V-FITC and propidium iodide staining based flow cytometry analysis (reference value: 0.019 %); format: functional
HT-29 [8] = assay: Potency index, ratio of 5-FU IC50 to test compound IC50 for antiproliferative activity against human HT-29 cells by MTT assay; format: functional
HCT-116 [9] = assay: Cell cycle arrest in human HCT-116 cells assessed as accumulation at S phase at 2.5 uM measured after 24 hrs by propidium iodide staining based flow cytometry analysis (reference value: 39%); format: functional
HCT-116 [10] = assay: Induction of apoptosis in human HCT-116 cells assessed as necrotic cells at 5 uM incubated for 24 hrs by Annexin V-FITC and propidium iodide staining based flow cytometry analysis (reference value: 0.019 %); format: functional
HCT-116 [11] = assay: Cell cycle arrest in human HCT-116 cells assessed as accumulation at G0/G1 phase at 2.5 uM measured after 24 hrs by propidium iodide staining based flow cytometry analysis (reference value: 30.60 %); format: functional
HCT-116 [12] = assay: Induction of apoptosis in human HCT-116 cells assessed as late apoptotic cells at 10 uM incubated for 24 hrs by annexin V-FITC and propidium iodide staining based flow cytometry analysis (reference value: 0.899 %); format: functional
HCT-116 [13] = assay: Potency index, ratio of 5-FU IC50 to test compound IC50 for antiproliferative activity against human HCT-116 cells by MTT assay; format: functional
HCT-116 [14] = assay: Induction of apoptosis in human HCT-116 cells assessed as viable cells at 10 uM incubated for 24 hrs by Annexin V-FITC and propidium iodide staining based flow cytometry analysis (reference value: 92.9 %); format: functional; conditions: read-out: Activity
HCT-116 [15] = assay: Cell cycle arrest in human HCT-116 cells assessed as accumulation at G2M phase at 5 uM measured after 24 hrs by propidium iodide staining based flow cytometry analysis (reference value: 30.39 %); format: functional
HeLa [16] = assay: Potency index, ratio of 5-FU IC50 to test compound IC50 for antiproliferative activity against human HeLa cells by MTT assay; format: functional
HCT-116 [17] = assay: Induction of apoptosis in human HCT-116 cells assessed as necrotic cells at 2.5 uM incubated for 24 hrs by Annexin V-FITC and propidium iodide staining based flow cytometry analysis (reference value: 0.019 %); format: functional
HCT-116 [18] = assay: Induction of apoptosis in human HCT-116 cells assessed as early apoptotic cells at 10 uM incubated for 24 hrs by Annexin V-FITC and propidium iodide staining based flow cytometry analysis (reference value: 6.19 %); format: functional
MCF7 [19] = assay: Potency index, ratio of 5-FU IC50 to test compound IC50 for antiproliferative activity against human MCF7 cells by MTT assay; format: functional
HCT-116 [20] = assay: Induction of apoptosis in human HCT-116 cells assessed as viable cells at 5 uM incubated for 24 hrs by Annexin V-FITC and propidium iodide staining based flow cytometry analysis (reference value: 92.9 %); format: functional; conditions: read-out: Activity
HCT-116 [21] = assay: Induction of apoptosis in human HCT-116 cells assessed as late apoptotic cells at 5 uM incubated for 24 hrs by Annexin V-FITC and propidium iodide staining based flow cytometry analysis (reference value: 0.899 %); format: functional
HCT-116 [22] = assay: Induction of apoptosis in human HCT-116 cells assessed as viable cells at 2.5 uM incubated for 24 hrs by Annexin V-FITC and propidium iodide staining based flow cytometry analysis (reference value: 92.9 %); format: functional; conditions: read-out: Activity
HCT-116 [23] = assay: Cell cycle arrest in human HCT-116 cells assessed as accumulation at G2M phase at 2.5 uM measured after 24 hrs by propidium iodide staining based flow cytometry analysis (reference value: 30.39 %); format: functional
HCT-116 [24] = assay: Cell cycle arrest in human HCT-116 cells assessed as accumulation at S phase at 5 uM measured after 24 hrs by propidium iodide staining based flow cytometry analysis (reference value: 39%); format: functional
HCT-116 [25] = assay: Cell cycle arrest in human HCT-116 cells assessed as accumulation at G2M phase at 10 uM measured after 24 hrs by propidium iodide staining based flow cytometry analysis (reference value: 30.39 %); format: functional
HCT-116 [26] = assay: Induction of apoptosis in human HCT-116 cells assessed as late apoptotic cells at 2.5 uM incubated for 24 hrs by Annexin V-FITC and propidium iodide staining based flow cytometry analysis (reference value: 0.899 %); format: functional
HCT-116 [27] = assay: Induction of apoptosis in human HCT-116 cells assessed as early apoptotic cells at 2.5 uM incubated for 24 hrs by Annexin V-FITC and propidium iodide staining based flow cytometry analysis (reference value: 6.19 %); format: functional
HCT-116 [28] = assay: Cell cycle arrest in human HCT-116 cells assessed as accumulation at S phase at 10 uM measured after 24 hrs by propidium iodide staining based flow cytometry analysis (reference value: 39%); format: functional
HCT-116 [29] = assay: Cell cycle arrest in human HCT-116 cells assessed as accumulation at G0/G1 phase at 5 uM measured after 24 hrs by propidium iodide staining based flow cytometry analysis (reference value: 30.60 %); format: functional

## CCOC(=O)/C=N/c1cnc(Nc2ccc(N3CCN(C)CC3)cc2)nc1NC(C)C
HeLa [1]
  pIC50: 4.94
HT-29 [2]
  pIC50: 5.12
HCT-116 [3]
  pIC50: 4.87
MCF7 [4]
  pIC50: 4.91

## CC(C)Nc1nc(Nc2ccc(N3CCN(C)CC3)cc2)ncc1/N=C/c1cccs1
HeLa [1]
  pIC50: 4.11
HT-29 [2]
  pIC50: < 4.00
HCT-116 [3]
  pIC50: < 4.00
MCF7 [4]
  pIC50: 4.04

## C(=N\c1cnc(Nc2ccc(N3CCOCC3)cc2)nc1NC1CCCC1)/c1cccs1
HeLa [1]
  pIC50: < 4.00
HT-29 [2]
  pIC50: 4.68
HCT-116 [3]
  pIC50: < 4.00
MCF7 [4]
  pIC50: < 4.00

## CC(C)Nc1nc(Nc2ccc(N3CCOCC3)cc2)ncc1/N=C/c1ccccc1
HeLa [1]
  pIC50: < 4.00
HT-29 [2]
  pIC50: < 4.00
HCT-116 [3]
  pIC50: < 4.00
MCF7 [4]
  pIC50: < 4.00

## CCOC(=O)/C=N/c1cnc(Nc2ccc(N3CCOCC3)cc2)nc1NC1CCCC1
HCT-116 [5]
  Activity: 41.55%
HCT-116 [6]
  Activity: 24.2%
HCT-116 [7]
  Activity: 3.09%
HT-29 [8]
  Ratio IC50: 2.9
HCT-116 [9]
  Activity: 37.77%
HCT-116 [10]
  Activity: 0.62%
HCT-116 [11]
  Activity: 34.63%
HCT-116 [12]
  Activity: 24.4%
HCT-116 [13]
  Ratio IC50: 4.9
HCT-116 [14]
  viability at 10 µM: 44.5%
HCT-116 [15]
  Activity: 33.02%
HeLa [16]
  Ratio IC50: 3
HCT-116 [17]
  Activity: 0.195%
HCT-116 [18]
  Activity: 28%
MCF7 [19]
  Ratio IC50: 2.1
HCT-116 [20]
  viability at 5 µM: 63.5%
HCT-116 [21]
  Activity: 11.7%
HeLa [1]
  pIC50: 4.85
HCT-116 [22]
  viability at 2.5 µM: 80.3%
HCT-116 [23]
  Activity: 27.6%
HT-29 [2]
  pIC50: 5.25
HCT-116 [24]
  Activity: 30.52%
HCT-116 [3]
  pIC50: 5.31
HCT-116 [25]
  Activity: 29.98%
HCT-116 [26]
  Activity: 8.86%
HCT-116 [27]
  Activity: 10.6%
HCT-116 [28]
  Activity: 28.47%
MCF7 [4]
  pIC50: 5.05
HCT-116 [29]
  Activity: 36.46%

## CN1CCN(c2ccc(Nc3ncc(/N=C/c4ccccc4)c(NC4CCCC4)n3)cc2)CC1
HeLa [1]
  pIC50: < 4.00
HT-29 [2]
  pIC50: 4.54
HCT-116 [3]
  pIC50: 4.45
MCF7 [4]
  pIC50: < 4.00

## CCOC(=O)/C=N/c1cnc(Nc2ccc(S(N)(=O)=O)cc2)nc1NC1CCCC1
HeLa [1]
  pIC50: 4.68
HT-29 [2]
  pIC50: 4.63
HCT-116 [3]
  pIC50: 5.02
MCF7 [4]
  pIC50: 4.37

## CCOC(=O)/C=N/c1cnc(Nc2ccc(S(N)(=O)=O)cc2)nc1NC1CC1
HeLa [1]
  pIC50: < 4.00
HT-29 [2]
  pIC50: < 4.00
HCT-116 [3]
  pIC50: < 4.00
MCF7 [4]
  pIC50: < 4.00

## CCOC(=O)/C=N/c1cnc(Nc2ccc(S(N)(=O)=O)cc2)nc1NC(C)C
HeLa [1]
  pIC50: 4.08
HT-29 [2]
  pIC50: < 4.00
HCT-116 [3]
  pIC50: 4.31
MCF7 [4]
  pIC50: 4.23

## CC(C)Nc1nc(Nc2ccc(S(N)(=O)=O)cc2)ncc1/N=C/c1ccc(C(F)(F)F)cc1
HeLa [1]
  pIC50: < 4.00
HT-29 [2]
  pIC50: < 4.00
HCT-116 [3]
  pIC50: < 4.00
MCF7 [4]
  pIC50: < 4.00

## CC(C)Nc1nc(Nc2ccc(N3CCOCC3)cc2)ncc1/N=C/c1ccc(C(F)(F)F)cc1
HeLa [1]
  pIC50: < 4.00
HT-29 [2]
  pIC50: < 4.00
HCT-116 [3]
  pIC50: < 4.00
MCF7 [4]
  pIC50: < 4.00

## NS(=O)(=O)c1ccc(Nc2ncc(/N=C/c3cccs3)c(NC3CCCC3)n2)cc1
HeLa [1]
  pIC50: 4.96
HT-29 [2]
  pIC50: 5.00
HCT-116 [3]
  pIC50: 4.87
MCF7 [4]
  pIC50: 4.64

## O=c1[nH]cc(F)c(=O)[nH]1 [FLUOROURACIL]
HeLa [1]
  pIC50: 4.37
HT-29 [2]
  pIC50: 4.79
MCF7 [4]
  pIC50: 4.74
